Data as given in PubChem BioAssay (NCI).
Where “and” joins values, the source holds several entries; their conditions need not be identical. Equal entries are not always repeated.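 The compound was tested at five concentrations on cells cultured in 96-well plates, with a 48-hour exposure period. GI50: concentration for 50% inhibition of growth. The concentration for full growth arrest is given as TGI.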

Key:
Assay in all cases: NCI tumour cell line growth inhibition, 48 h
HOP-62 NSCLC = test system: HOP-62 NSCLC
DU-145 prostate = test system: DU-145 prostate
IGROV1 ovarian = test system: IGROV1 ovarian
MDA-MB-435 = test system: MDA-MB-435
A549 NSCLC = test system: A549 NSCLC
HCT-116 colon = test system: HCT-116 colon
K-562 leukemia = test system: K-562 leukemia
HL-60(TB) leukemia = test system: HL-60(TB) leukemia
SW-620 colon = test system: SW-620 colon
UACC-257 melanoma = test system: UACC-257 melanoma
SK-MEL-2 melanoma = test system: SK-MEL-2 melanoma
MOLT-4 leukemia = test system: MOLT-4 leukemia
UO-31 renal = test system: UO-31 renal
NCI-H226 lung = test system: NCI-H226 lung
CAKI-1 renal = test system: CAKI-1 renal
SR leukemia = test system: SR leukemia
CCRF-CEM leukemia = test system: CCRF-CEM leukemia

Structure (SMILES)	TGI (HOP-62 NSCLC)	TGI (DU-145 prostate)	TGI (IGROV1 ovarian)	TGI (MDA-MB-435)	TGI (A549 NSCLC)	TGI (HCT-116 colon)	TGI (K-562 leukemia)	TGI (HL-60(TB) leukemia)	TGI (SW-620 colon)	TGI (UACC-257 melanoma)	TGI (SK-MEL-2 melanoma)	TGI (MOLT-4 leukemia)	TGI (UO-31 renal)	TGI (NCI-H226 lung)	TGI (CAKI-1 renal)	TGI (SR leukemia)	TGI (CCRF-CEM leukemia)	GI50 (HL-60(TB) leukemia)	GI50 (SW-620 colon)	GI50 (CCRF-CEM leukemia)
COc1ccc(C2C(C=O)C(N3CCN(C)CC3)=Nc3nc4ccccc4n32)cc1 (stereo not given)	28.7 µM	49.3 µM	31.7 µM	39.7 µM	38.5 µM	29.8 µM	14.9 µM	18.4 µM	65.9 µM	41 µM	31.2 µM	12.3 µM	32.4 µM	38.2 µM	52.4 µM	2.35 µM	17.8 µM			
NC(CC(=O)O)(Cc1ccccc1)C(=O)O (stereo not given)	> 100 µM	> 100 µM	> 100 µM	> 100 µM	> 100 µM	> 100 µM	> 100 µM	> 100 µM	> 100 µM	> 100 µM	> 100 µM	> 100 µM	> 100 µM	> 100 µM	> 100 µM	> 100 µM	> 100 µM			
O=C(O)C1=NN(c2ccc(S(=O)(=O)O)cc2)C2(C1)SCC(=O)N2c1nc2ccccc2s1 (stereo not given)	> 100 µM	> 100 µM	> 100 µM	> 100 µM	> 100 µM	> 100 µM	> 100 µM	> 100 µM	> 100 µM	> 100 µM	> 100 µM	> 100 µM	> 100 µM	> 100 µM	> 100 µM	> 100 µM	> 100 µM			
CCN(CC)CCCNc1ncc(C)c2c1c1ccc3c(O)cccc3c1n2C	2.58 µM	3.79 µM	5.97 µM	33.8 µM	2.34 µM	2.28 µM	4.64 µM	5.07 µM	2.61 µM	31 µM	33.8 µM	1.84 µM	21.2 µM	26.2 µM	3.4 µM	1.78 µM	6.1 µM			
CN1CCc2cc(N)cc3c2C1Cc1ccc2c(c1-3)OCO2 (stereo not given)	> 100 µM	96.9 µM	58.5 µM	> 100 µM	> 100 µM	> 90.4 µM	> 80 µM	> 75.7 µM	> 100 µM	> 64.6 µM	> 100 µM	35 µM	84.6 µM	83.2 µM	> 100 µM	> 39.6 µM	15.9 µM			
CC1C(O)Oc2cc3c(cc2C1c1ccccc1O)OCO3 (stereo not given)	> 100 µM	> 100 µM	> 100 µM	> 100 µM	> 100 µM	35.5 µM	46.5 µM	36.7 µM	> 100 µM	> 100 µM	83.8 µM	61.7 µM	> 100 µM	69.2 µM	> 100 µM	25.2 µM	51.2 µM			
O=C(Nc1ccc(Cl)cc1)NS(=O)(=O)c1c(-c2ccccc2)oc2ccccc2c1=O	> 100 µM	> 100 µM	> 100 µM	> 100 µM	> 100 µM	> 100 µM	> 100 µM	> 100 µM	> 100 µM	> 100 µM	> 100 µM	> 100 µM	> 100 µM	> 100 µM	> 100 µM	> 100 µM	> 100 µM			
Cc1cc(O)c2c(c1)CC(O)C1=C2C(=O)c2c(O)ccc(OC3CC(O)C(OC4CC(OC5CCC(O)C(C)O5)C(O)C(C)O4)C(C)O3)c2C1=O (stereo not given)	3.77 µM	3.19 µM	2.9 µM	2.82 µM	7.77 µM	3.47 µM	6.98 µM	1.68 µM	3.14 µM	2.93 µM	3.83 µM	1.75 µM	3.23 µM	3.32 µM	3.23 µM	2.81 µM	0.706 µM			
CCOP(=O)(OCC)C(F)(F)Cc1cnc(C)c2c1COC(C)(C)O2	> 10 µM	> 10 µM	> 10 µM	> 10 µM	> 10 µM	> 10 µM	> 10 µM	> 10 µM	> 10 µM	> 10 µM	> 10 µM	> 10 µM	> 10 µM	> 10 µM	> 10 µM	> 10 µM	> 10 µM			
N#CC1(C#N)C(c2ccccc2)C=CC(c2ccc([N+](=O)[O-])cc2)C1(C#N)C#N (stereo not given)	31.7 µM	27.3 µM	27.8 µM	16.3 µM	32 µM	13.7 µM	> 100 µM	0.574 µM	> 32.4 µM	30.2 µM	31.6 µM	7.1 µM	26.8 µM	> 57.5 µM	13.1 µM	> 23.6 µM	> 100 µM			
C=C(CN)CO[Si](C)(C)C(C)(C)C	> 100 µM	> 100 µM	> 100 µM	> 100 µM	> 100 µM	> 100 µM	> 100 µM	> 100 µM	> 100 µM	> 100 µM	> 100 µM	> 100 µM	> 100 µM	> 100 µM	> 100 µM	> 100 µM	> 100 µM			
COC(=O)/C=C1/OC(c2ccc(C)cc2)=C(Cl)C1=O	38.8 µM	32.7 µM	34.4 µM	34.9 µM	40.4 µM	24.7 µM	19 µM	10.2 µM	28.9 µM	43.1 µM	34.3 µM	13.8 µM	31.6 µM	47.1 µM	29.7 µM	9.06 µM	11.7 µM			
COc1cccc(Nc2nc(N)nc(N)c2N=O)c1	> 100 µM	36.7 µM	94 µM	39.9 µM	> 100 µM	38.2 µM	> 100 µM	79 µM	> 100 µM	56.9 µM	> 100 µM	41.8 µM	38.1 µM	90.9 µM	55.4 µM	45.5 µM	93.4 µM			
CC(C)NC(=O)OCc1c(COC(=O)NC(C)C)c(-c2ccc[n+](COC(=O)C(C)(C)C)c2)n2c1CCC2	> 100 µM	> 100 µM	> 100 µM	> 100 µM	> 100 µM	> 100 µM	> 100 µM	> 94.9 µM	> 100 µM	> 100 µM	> 100 µM	> 100 µM	> 100 µM	> 100 µM	99.7 µM	> 100 µM	> 100 µM			
O=c1c2cc(S(=O)(=O)Nc3c(Cl)cccc3Cl)ccc2ncn1NS(=O)(=O)c1ccc2ccccc2c1	> 62.5 µM	> 62.5 µM	> 62.5 µM	> 62.5 µM	> 62.5 µM	> 62.5 µM	> 62.5 µM	> 62.5 µM	> 62.5 µM	> 62.5 µM	> 62.5 µM	> 62.5 µM	> 62.5 µM	35.1 µM	> 62.5 µM	> 62.5 µM	> 62.5 µM			
Cc1ccc(/C=N/NS(=O)(=O)c2ccc(/C=C3\NC(=O)NC3=O)cc2)cc1	91.1 µM	> 100 µM	> 100 µM	> 100 µM	> 100 µM	> 100 µM	> 100 µM	> 100 µM	> 100 µM	> 100 µM	> 100 µM	> 100 µM	> 100 µM	> 100 µM	> 100 µM	> 100 µM	> 100 µM			
CN(C)CCCN1c2ccccc2CCc2cc([N+](=O)[O-])ccc21	48.6 µM and 30 µM	58.9 µM and 34.6 µM	53.2 µM and 29.8 µM	48.4 µM and 31.1 µM	70.2 µM and 37.7 µM	41 µM and 29.7 µM	> 100 µM and 38.6 µM	54 µM and 9.46 µM	> 100 µM and 32.6 µM	38 µM and 29.5 µM	39.4 µM and 38.8 µM	> 100 µM and 35.9 µM	70.8 µM and 28.7 µM	68 µM and 32.6 µM	59.7 µM and 32.2 µM	90.6 µM and 44 µM	> 100 µM and 27 µM	19.2 µM and 2.83 µM	37.2 µM and 16.3 µM	43.8 µM and 10.7 µM
O=C(O)c1ccc(NNC(=O)c2cccc3c(=O)c4ccccc4[nH]c23)cc1	> 100 µM	> 100 µM	> 100 µM	> 100 µM	> 100 µM	> 100 µM	> 100 µM	> 100 µM	> 100 µM	> 100 µM	> 100 µM	> 100 µM	> 100 µM	> 100 µM	> 100 µM	> 100 µM	> 100 µM			
O=C(CC(=O)N1N=C(N(c2ccccc2)c2ccccc2)CC1c1ccccc1)Nc1ccccc1 (stereo not given)	> 100 µM	> 100 µM	> 100 µM	> 100 µM	> 100 µM	> 100 µM	> 100 µM	> 100 µM	> 100 µM	> 100 µM	> 100 µM	> 100 µM	> 100 µM	> 100 µM	> 100 µM	> 100 µM	> 100 µM			
O=c1/c(=C/c2ccc([N+](=O)[O-])o2)sc2n1[C@@H](c1ccc3c(c1)OCO3)C=C(c1cc(F)c(Cl)cc1Cl)N=2	58.9 µM	79.8 µM	33.4 µM	35.3 µM	> 100 µM	28 µM	> 100 µM	45.5 µM	> 100 µM	34.8 µM	83 µM	> 100 µM	42.2 µM	> 100 µM	33.6 µM	> 100 µM	10.5 µM			
Cn1c(=O)c2c(nc3n(C)c(=O)c4ccccc4n23)n(C)c1=O	> 84.3 µM	> 83.6 µM	> 100 µM	> 100 µM	> 100 µM	> 100 µM	> 100 µM	> 100 µM	> 100 µM	> 100 µM	> 100 µM	13.4 µM	> 100 µM	58.7 µM	> 100 µM	20.1 µM	44.9 µM			
